# From ChEMBL document CHEMBL5137011, “Semisynthetic pleuromutilin antimicrobials with therapeutic potential against methicillin-resistant Staphylococcus aureus by targeting 50S ribosomal subunit” (Eur J Med Chem, 2022)
# Columns and labels:
# [1] = system: RAW264.7; assay: Cytotoxicity against mouse RAW264.7 cells assessed as reduction in cell viability at 8 ug/ml incubated for 16 hrs by MTT assay; type: toxicity, cell-based; details: raw264.7, 16 h, dose 8 µg/ml
# [2] = system: Staphylococcus aureus; assay: Antibacterial activity against methicillin-resistant Staphylococcus aureus ATCC 43300 assessed as inhibition of bacterial growth incubated for 16 hrs by CLSI based broth microdilution method; type: functional
# [3] = system: Staphylococcus aureus; assay: Antibacterial activity against Staphylococcus aureus 144 assessed as inhibition of bacterial growth incubated for 16 hrs by CLSI based broth microdilution method; type: functional
# [4] = system: Staphylococcus aureus; assay: Antibacterial activity against Staphylococcus aureus AD3 assessed as inhibition of bacterial growth incubated for 16 hrs by CLSI based broth microdilution method; type: functional
# [5] = system: Staphylococcus aureus; assay: Antibacterial activity against Staphylococcus aureus SA17 assessed as inhibition of bacterial growth incubated for 16 hrs by CLSI based broth microdilution method; type: functional
# [6] = system: Staphylococcus aureus; assay: Antibacterial activity against Staphylococcus aureus ATCC 29213 assessed as inhibition of bacterial growth incubated for 16 hrs by CLSI based broth microdilution method; type: functional
# [7] = system: 16HBE14o-; assay: Cytotoxicity against human 16HBE14o- cells assessed as reduction in cell viability at 8 ug/ml incubated for 16 hrs by MTT assay; type: toxicity, cell-based; details: dose 8 µg/ml
# [8] = system: Staphylococcus aureus; assay: Antibacterial activity against methicillin-resistant Staphylococcus aureus ATCC 43300 infected in ICR/Swiss mouse systemic infection model assessed as survival rate at 30 mg/kg, iv administered as bolus injection 1 hr post infection measured twice daily after 2 to 7 days; type: functional; details: time 2-7 day
# [9] = molecular target: Bacterial 70S ribosome (Bacteria) (UniProt P0A7V0+P60723+P0AG67+P0A7R5+P0A7R9+P0A7S3+P0A7S9+P0AG59+P0ADZ4+P0A7T3+P0AG63+P0A7T7+P0A7U3+P0A7U7+P68679+P0A7V3+P0A7V8+P0A7W1+P02358+P02359+P0A7W7+P0A7X3+P0A7J3+P0A7J7+P0AA10+P0ADY3+P02413+P0ADY7+P0AG44+P0C018+P0A7K6+P0A7L0+P0A7L3+P0AG48+P61175+P0ADZ0+P60624+P68919+P0A7L8+P0A7M2+P0A7M6+P60422+P0AG51+P0A7N1+P0A7M9+P0A7N4+P0A7N9+P0A7P5+P0A7Q1+Q2EEQ2+P0A7Q6+P60438+P62399+P0AG55+P0A7K2); assay: Binding affinity to Staphylococcus aureus ATCC 43300 50S ribosomal subunit assessed as association rate constant by surface plasmon resonance analysis; type: subcellular
# [10] = molecular target: Bacterial 70S ribosome; assay: Binding affinity to Staphylococcus aureus ATCC 43300 50S ribosomal subunit assessed as equilibrium dissociation constant by surface plasmon resonance analysis; type: subcellular
# [11] = system: Staphylococcus aureus; assay: Antibacterial activity against methicillin-resistant Staphylococcus aureus ATCC 43300 infected in ICR/Swiss mouse […] thigh infection model assessed as log reduction in bacterial load in thigh at 20 mg/kg, iv administered as bolus injection measured after 24 hrs; type: functional
# [12] = system: Staphylococcus aureus; assay: Antibacterial activity against methicillin-resistant Staphylococcus aureus ATCC 43300 assessed as log reduction in colony forming unit at 4 times MIC measured after 3 hrs by time kill assay; type: functional
# [13] = system: Staphylococcus aureus; assay: Antibacterial activity against methicillin-resistant Staphylococcus aureus ATCC 43300 assessed as log reduction in colony forming unit at 4 times MIC measured after 24 hrs by time kill assay; type: functional
SMILES,Activity [1],MIC [2],MIC [3],MIC [4],MIC [5],MIC [6],Activity [7],survival at 30 mg/kg [8],Ka [9],Kd [10],Activity [11],Activity [12],Activity [13]
C=C[C@]1(C)C[C@@H](OC(=O)CSc2nnc(-c3ccccc3C(F)(F)F)[nH]2)[C@]2(C)[C@H](C)CC[C@]3(CCC(=O)[C@H]32)[C@@H](C)[C@@H]1O,Non-Toxic,0.25 µg/mL,8 µg/mL,0.25 µg/mL,4 µg/mL,0.5 µg/mL,Non-Toxic,,,,,,
C=C[C@]1(C)C[C@@H](OC(=O)CSc2nnc(-c3ccccc3[N+](=O)[O-])[nH]2)[C@]2(C)[C@H](C)CC[C@]3(CCC(=O)[C@H]32)[C@@H](C)[C@@H]1O,Non-Toxic,0.25 µg/mL,0.25 µg/mL,0.25 µg/mL,0.125 µg/mL,0.125 µg/mL,Non-Toxic,,,,,,
C=C[C@]1(C)C[C@@H](OC(=O)CSc2nnc(-c3ccccc3Cl)[nH]2)[C@]2(C)[C@H](C)CC[C@]3(CCC(=O)[C@H]32)[C@@H](C)[C@@H]1O,Non-Toxic,0.125 µg/mL,0.5 µg/mL,0.125 µg/mL,0.5 µg/mL,0.5 µg/mL,Non-Toxic,,,,,,
C=C[C@]1(C)C[C@@H](OC(=O)CSc2nnc(-c3ccc([N+](=O)[O-])cc3)[nH]2)[C@]2(C)[C@H](C)CC[C@]3(CCC(=O)[C@H]32)[C@@H](C)[C@@H]1O,Non-Toxic,0.125 µg/mL,2 µg/mL,0.0625 µg/mL,0.5 µg/mL,0.25 µg/mL,Non-Toxic,,,,,,
C=C[C@]1(C)C[C@@H](OC(=O)CSc2nnc(-c3ccc(Cl)cc3)[nH]2)[C@]2(C)[C@H](C)CC[C@]3(CCC(=O)[C@H]32)[C@@H](C)[C@@H]1O,Non-Toxic,0.125 µg/mL,1 µg/mL,0.125 µg/mL,0.5 µg/mL,0.0625 µg/mL,Non-Toxic,,,,,,
C=C[C@]1(C)C[C@@H](OC(=O)CSc2nnc(-c3cccc(F)c3)[nH]2)[C@]2(C)[C@H](C)CC[C@]3(CCC(=O)[C@H]32)[C@@H](C)[C@@H]1O,Non-Toxic,0.125 µg/mL,1 µg/mL,0.0625 µg/mL,0.5 µg/mL,0.125 µg/mL,Non-Toxic,,,,,,
C=C[C@]1(C)C[C@@H](OC(=O)CSc2nnc(-c3cccc(C)c3)[nH]2)[C@]2(C)[C@H](C)CC[C@]3(CCC(=O)[C@H]32)[C@@H](C)[C@@H]1O,Non-Toxic,0.25 µg/mL,4 µg/mL,0.0625 µg/mL,1 µg/mL,0.25 µg/mL,Non-Toxic,,,,,,
C=C[C@]1(C)C[C@@H](OC(=O)CSCCN(CC)CC)[C@]2(C)[C@H](C)CC[C@]3(CCC(=O)[C@H]32)[C@@H](C)[C@@H]1O [TIAMULIN],,0.5 µg/mL,1 µg/mL,0.5 µg/mL,1 µg/mL,0.5 µg/mL,,30%,1.22 10^2/Ms,36.3 nM,-1.1 log10CFU/ml,,
C=C[C@]1(C)C[C@@H](OC(=O)CSc2nnc(-c3cccc(Cl)c3)[nH]2)[C@]2(C)[C@H](C)CC[C@]3(CCC(=O)[C@H]32)[C@@H](C)[C@@H]1O,Non-Toxic,0.0625 µg/mL,0.25 µg/mL,0.125 µg/mL,0.125 µg/mL,0.125 µg/mL,Non-Toxic,,,,,-1 log10CFU/ml,-9.23 log10CFU/ml
